Results taken from patent US20230149603A1, “DRUG-RELEASING POLYMER COMPOSITION AND DEVICE” (Novaflux Inc., priority 2021, published 2023).
Where a name gives a salt, the structure may show the parent alone.

How the values were obtained:
[1] = tested on: S. Aureus; conditions: averaged between the high and low of the MIC; cited from earlier work
[2] = cited from earlier work
[3] = tested on: S. Epidermidis; conditions: averaged between the high and low of the MIC; cited from earlier work
[4] = tested on: A. Baumanii; conditions: averaged between the high and low of the MIC; cited from earlier work
[5] = tested on: E. Coli; conditions: averaged between the high and low of the MIC; cited from earlier work
[6] = Thermogravimetric analysis of the APIs; format: physicochemical; conditions: ramp heated to 140° C. and held for 10 minutes
Description: Thermogravimetric analysis was performed on the APIs used in compositions. Each drug was ramp heated to 140° C. and held at that temperature for 10 minutes. For all compositions, time spent melt-mixing is 8-10 minutes. The decomposition of the API in that time was less than 0.5% for each drug, meaning that the API are stable during processing. For Rifampin, the change in mass was 0.292%; for Minocycline HCl the change in mass was 0.421%; and for minocycline Free Base the change in mass was 0.137%.

[7] = Stability (discoloration) of the two forms of minocycline

SMILES	MIC [1]	solubility in water [2]	MIC [3]	MIC [4]	MIC [5]	change in mass (decomposition of the API) [6]	discoloration process ([7]; dry powder form exposed to air)	stability (discoloration) over time ([7]; stored in distilled water and formulated in compositions)
CO[C@H]1/C=C/O[C@@]2(C)Oc3c(C)c(O)c4c(O)c(c(/C=N/N5CCN(C)CC5)c(O)c4c3C2=O)NC(=O)/C(C)=C\C=C\[C@H](C)[C@H](O)[C@@H](C)[C@@H](O)[C@@H](C)[C@H](OC(C)=O)[C@@H]1C [Rifampicin]	0.0095 micrograms per ml	low solubility in water	0.1 micrograms per ml	6 micrograms per ml	10 micrograms per ml	0.292%	–	–
CN(C)c1ccc(O)c2c1C[C@H]1C[C@H]3[C@H](N(C)C)C(=O)C(C(N)=O)=C(O)[C@@]3(O)C(=O)C1=C2O [minocycline Free Base]	–	–	–	–	–	0.137%	not observed at all	the drug oxidizes with the passage of time
CN(C)c1ccc(O)c2c1C[C@H]1C[C@H]3[C@H](N(C)C)C(O)=C(C(N)=O)C(=O)[C@@]3(O)C(O)=C1C2=O [Minocycline HCl]	–	–	–	–	–	0.421%	–	–
